ChEMBL document CHEMBL3046776, “Antibacterial and antifungal screening of newly synthesized benzimidazole-clubbed chalcone derivatives” (2013)

Legend:
Type in all cases: functional
[1] = system: Pseudomonas aeruginosa; assay: Antibacterial activity against Pseudomonas aeruginosa ATCC 27853 assessed as growth inhibition by broth microdilution method
[2] = system: Escherichia coli; assay: Antibacterial activity against Escherichia coli ATCC 25922 assessed as growth inhibition by broth microdilution method
[3] = system: Enterococcus faecalis; assay: Antibacterial activity against Enterococcus faecalis ATCC 29212 assessed as growth inhibition by broth microdilution method
[4] = system: Staphylococcus aureus; assay: Antibacterial activity against Staphylococcus aureus ATCC 25923 assessed as growth inhibition by broth microdilution method
[5] = system: Aspergillus niger; assay: Antifungal activity against Aspergillus niger ATCC 1015 assessed as growth inhibition by broth microdilution method
[6] = system: Candida albicans; assay: Antifungal activity against Candida albicans ATCC 10231 assessed as growth inhibition by broth microdilution method

Row | SMILES | MIC [1] | MIC [2] | MIC [3] | MIC [4] | MIC [5] | MIC [6]
1 | COc1ccc(/C=C/C(=O)c2ccc(NC(=O)CSc3nc4ccccc4[nH]3)cc2)cc1OC | 125 µg/mL | 31.2 µg/mL | 250 µg/mL | 62.5 µg/mL | 62.5 µg/mL | 125 µg/mL
2 | O=C(CSc1nc2ccccc2[nH]1)Nc1ccc(C(=O)/C=C/c2ccc([N+](=O)[O-])cc2)cc1 | 125 µg/mL | 62.5 µg/mL | 125 µg/mL | 62.5 µg/mL | 62.5 µg/mL | 125 µg/mL
3 | CN(C)c1ccc(/C=C/C(=O)c2ccc(NC(=O)CSc3nc4ccccc4[nH]3)cc2)cc1 | 125 µg/mL | 31.2 µg/mL | 125 µg/mL | 125 µg/mL | 125 µg/mL | 125 µg/mL
4 | O=C(CSc1nc2ccccc2[nH]1)Nc1ccc(C(=O)/C=C/c2ccc(Br)cc2)cc1 | 125 µg/mL | 31.2 µg/mL | 125 µg/mL | 125 µg/mL | 125 µg/mL | 250 µg/mL
5 | O=C(CSc1nc2ccccc2[nH]1)Nc1ccc(C(=O)/C=C/c2cccc(Cl)c2)cc1 | 125 µg/mL | 62.5 µg/mL | 125 µg/mL | 31.2 µg/mL | 125 µg/mL | 250 µg/mL
6 | O=C(CSc1nc2ccccc2[nH]1)Nc1ccc(C(=O)/C=C/c2cccc(Br)c2)cc1 | 125 µg/mL | 62.5 µg/mL | 250 µg/mL | 31.2 µg/mL | 250 µg/mL | 250 µg/mL
7 | COc1cc(/C=C/C(=O)c2ccc(NC(=O)CSc3nc4ccccc4[nH]3)cc2)cc(OC)c1OC | 125 µg/mL | 31.2 µg/mL | 250 µg/mL | 31.2 µg/mL | 250 µg/mL | 125 µg/mL
8 | O=C(CSc1nc2ccccc2[nH]1)Nc1ccc(C(=O)/C=C/c2ccccc2[N+](=O)[O-])cc1 | 250 µg/mL | 31.2 µg/mL | 250 µg/mL | 31.2 µg/mL | 250 µg/mL | 250 µg/mL
9 | COc1ccc(OC)c(/C=C/C(=O)c2ccc(NC(=O)CSc3nc4ccccc4[nH]3)cc2)c1 | 125 µg/mL | 31.2 µg/mL | 125 µg/mL | 31.2 µg/mL | 125 µg/mL | 250 µg/mL
10 | COc1cc(/C=C/C(=O)c2ccc(NC(=O)CSc3nc4ccccc4[nH]3)cc2)ccc1O | 250 µg/mL | 62.5 µg/mL | 250 µg/mL | 15.6 µg/mL | 125 µg/mL | 62.5 µg/mL
11 | O=C(CSc1nc2ccccc2[nH]1)Nc1ccc(C(=O)/C=C/c2c(O)ccc3ccccc23)cc1 | 62.5 µg/mL | 62.5 µg/mL | 250 µg/mL | 62.5 µg/mL | 62.5 µg/mL | 125 µg/mL
12 | O=C(CSc1nc2ccccc2[nH]1)Nc1ccc(C(=O)/C=C/c2ccccc2O)cc1 | 31.2 µg/mL | 31.2 µg/mL | 125 µg/mL | 62.5 µg/mL | 125 µg/mL | 62.5 µg/mL
13 | COc1ccc(/C=C/C(=O)c2ccc(NC(=O)CSc3nc4ccccc4[nH]3)cc2)cc1 | 250 µg/mL | 62.5 µg/mL | 250 µg/mL | 31.2 µg/mL | 125 µg/mL | 125 µg/mL
14 | O=C(CSc1nc2ccccc2[nH]1)Nc1ccc(C(=O)/C=C/c2ccc(O)cc2)cc1 | 250 µg/mL | 62.5 µg/mL | 125 µg/mL | 31.2 µg/mL | 125 µg/mL | 125 µg/mL
15 | O=C(CSc1nc2ccccc2[nH]1)Nc1ccc(C(=O)/C=C/c2ccccc2)cc1 | 250 µg/mL | 125 µg/mL | 250 µg/mL | 250 µg/mL | 125 µg/mL | 250 µg/mL
16 | O=C(CSc1nc2ccccc2[nH]1)Nc1ccc(C(=O)/C=C/c2ccc(Cl)cc2)cc1 | 125 µg/mL | 62.5 µg/mL | 250 µg/mL | 125 µg/mL | 125 µg/mL | 250 µg/mL
17 | O=C(O)c1cn(C2CC2)c2cc(N3CCNCC3)c(F)cc2c1=O [CIPROFLOXACIN] | 125 µg/mL | 125 µg/mL | 125 µg/mL | 62.5 µg/mL | – | –
18 | OC(Cn1cncn1)(Cn1cncn1)c1ccc(F)cc1F [FLUCONAZOLE] | – | – | – | – | 62.5 µg/mL | 125 µg/mL
